Results published in patent US20260258084A1, “New Peptides as Selective IL-23 Receptor Antagonists” (Sanofi, priority 2022, published 2026).
Starred links: 1 amine or outer side, 2 acyl side, 3 side chain; linkers in the order of their positions; H or OH if unused. Positions of bridges follow the written chain, without caps; N, C: chain ends. Non-standard residues stand in square brackets, D forms with d. Residues, ends and D or L forms follow the SMILES beside them. *: point of attachment. X6 = O=C(CCC(=O)[*:3])N[C@@H](CS[*:2])C(=O)[*:1]; Trp(7-Me) = Cc1cccc2c(C[C@H](N)C(=O)O)c[nH]c12; X1 = O=C(CCCCN[*:3])N[C@@H](CS[*:2])C(=O)[*:1]; αMeLys(Me2) = CN(C)CCCC[C@](C)(N)C(=O)O; 2Nal = N[C@@H](Cc1ccc2ccccc2c1)C(=O)O; AEF = NCCOc1ccc(C[C@H](N)C(=O)O)cc1; 3Pal = N[C@@H](Cc1cccnc1)C(=O)O; Lys(Me) = CNCCCC[C@H](N)C(=O)O; αMeL = CC(C)C[C@](C)(N)C(=O)O; Suc = O=C(CCC(=O)[*:2])[*:1]; Me2NCH2CH2 = CN(C)CC*; Aib = CC(C)(N)C(=O)O; Ahx = NCCCCCC(=O)O; Ava = NCCCCC(=O)O; Sar = CNCC(=O)O

Key:
[1] = target: T1, human interleukin-23 receptor (recombinant human IL-23R-Fc chimera) (Homo sapiens, UniProt Q5VWK5); assay: Human ELISA IL23/IL23R (assay for specific human IL23R antagonists); format: binding; settings: Table 10; read-out: Human ELISA IL23/IL23R IC50
T1 construct: Fc (IgG Fc fusion)
Summary of the method: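 Competition format: peptide dilutions compete for IL23R-Fc chimera (0.1 μg/ml final, 60 min, room temperature) binding to immobilized human IL23 coated at […] overnight at 4 °C. Read-out is fluorogenic HRP signal from goat anti-hu-IgG1 detecting captured receptor.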

[2] = system: IL-23 induced STAT3 signaling in HEK-Blue™ IL-23 cells; assay: IL-23 induced STAT3 signaling in HEK-Blue IL-23 cells (SEAP reporter); format: cell-based; settings: human IL23 0.25 ng/ml, read-out: pSTAT3
Summary of the method: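 Secreted SEAP, read at OD 620-655 nm after 45 min QUANTI-Blue development, reports STAT3 activation. Beforehand, cells were exposed to peptide dilutions for 60 min at 37 °C and then to 0.25 ng/ml final human IL-23 overnight, at 10,000 cells/well.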

Pancreatin = assay: Protease stability in simulated intestinal fluid (Pancreatin-SIF, FaSSIF); format: in vitro ADME; settings: 1 μM peptide, 37° C.; for remaining at 1 h, 1 µM: 60 min, read-out: FaSSIF 60 (min), remaining percent of peptide; for remaining at 2 h, 1 µM: 120 min, read-out: FaSSIF 120 (min), remaining percent of peptide; for remaining at 4 h, 1 µM: 240 min, read-out: FaSSIF 240 (min), remaining percent of peptide
Summary of the method: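 LC-MS/MS peak areas at 0, 60, 120 and 240 min, normalised to time 0 as 100%, give percent remaining. Reactions used 1 μM final peptide at 37° C in pancreatin-SIF (1 mg pancreatin in 10 mL SIF concentrate) and were stopped with ethanol containing 0.1% HCOOH.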

Pepsin = system: T2, Pepsin; assay: Protease stability in simulated gastric fluid (Pepsin-SGF, FaSSGF); format: in vitro ADME; settings: simulated gastric fluid with pepsin (Pepsin-SGF), 60 min, 1 μM peptide, 37° C., read-out: FaSSGF 60 (min), remaining percent of peptide
T2 construct: purchased Merck Millipore
Summary of the method: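 LCMS/MS peak areas, normalised to the time-0 sample as 100%, give percent remaining. Conditions: 37° C incubation of 1 μM final peptide in simulated gastric fluid with pepsin; ethanol/0.1% HCOOH quench at 0, 60, 120, 240 min.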

| Compound | IC50 [1] [nM] | remaining at 1 h, 1 µM (Pancreatin) [%] | remaining at 2 h, 1 µM (Pancreatin) [%] | remaining at 4 h, 1 µM (Pancreatin) [%] | remaining at 1 h, 1 µM (Pepsin) [%] | IC50 [2] [nM] |
| --- | --- | --- | --- | --- | --- | --- |
| CC(=O)NCCCC[C@@H]1NC(=O)[C@H](Cc2c[nH]c3c(C)cccc23)NC(=O)[C@@H](NC(C)=O)CCCCNC(=O)[C@@H]2CSSC[C@H](NC1=O)C(=O)N[C@@H](Cc1ccc(OCCN(C)C)cc1)C(=O)N[C@@H](Cc1ccc3ccccc3c1)C(=O)NC(C)(C)C(=O)N[C@H](C(=O)N[C@@H](CC(N)=O)C(=O)N[C@@H](Cc1cccnc1)C(=O)N(C)CC(N)=O)CCC(=O)NCCCCC(=O)N2 [compound 72] (Ac-K[Trp(7-Me)]K(Ac)CY(Me2NCH2CH2)[2Nal][Aib]EN[3Pal][Sar]-NH2; linker 1-4-8 via X1) | 0.59 | 91 | 90 | 83 | 92 | 0.12 |
| CC(=O)NCCCC[C@@H]1NC(=O)[C@H](Cc2c[nH]c3c(C)cccc23)NC(=O)[C@H]([C@@H](C)O)NC(=O)[C@H](CC(N)=O)NC(=O)[C@@H]2CSSC[C@H](NC1=O)C(=O)N[C@@H](Cc1ccc(OCCN(C)C)cc1)C(=O)N[C@@H](Cc1ccc3ccccc3c1)C(=O)NC(C)(C)C(=O)N[C@H](C(=O)N[C@@H](CC(N)=O)C(=O)N[C@@H](Cc1cccnc1)C(=O)N(C)CC(N)=O)CCC(=O)NCCCCC(=O)N2 [compound 64] ([Ava]CNT[Trp(7-Me)]K(Ac)CY(Me2NCH2CH2)[2Nal][Aib]EN[3Pal][Sar]-NH2; disulfide 2-7; lactam N-11) | 0.27 | 96 | 92 | 92 | 91 | 0.22 |
| CC(=O)NCCCC[C@@H]1NC(=O)[C@H](Cc2c[nH]c3c(C)cccc23)NC(=O)[C@H]([C@@H](C)O)NC(=O)[C@H](CC(N)=O)NC(=O)[C@@H]2CSSC[C@H](NC1=O)C(=O)N[C@@H](Cc1ccc(OCCN(C)C)cc1)C(=O)N[C@@H](Cc1ccc3ccccc3c1)C(=O)N[C@@](C)(CC(C)C)C(=O)N[C@H](C(=O)N[C@@H](CC(N)=O)C(=O)N[C@@H](Cc1cccnc1)C(=O)N(C)CC(N)=O)CCCCNC(=O)CCC(=O)N2 [compound 103] (CNT[Trp(7-Me)]K(Ac)CY(Me2NCH2CH2)[2Nal][αMeL]KN[3Pal][Sar]-NH2; disulfide 1-6; linker N-10 via Suc) | 0.56 | 75 | 73 | 67 | 89 | 0.11 |
| CC(=O)NCCCC[C@@H]1NC(=O)[C@H](Cc2c[nH]c3c(C)cccc23)NC(=O)[C@@H](NC(C)=O)CCCCNC(=O)[C@@H]2CSSC[C@H](NC1=O)C(=O)N[C@@H](Cc1ccc(OCCN(C)C)cc1)C(=O)N[C@@H](Cc1ccc3ccccc3c1)C(=O)NC(C)(C)C(=O)N[C@H](C(=O)N[C@@H](CC(N)=O)C(=O)N[C@@H](Cc1cccnc1)C(=O)N(C)CC(N)=O)CCCCNC(=O)CCC(=O)N2 [compound 104] (Ac-K[Trp(7-Me)]K(Ac)CY(Me2NCH2CH2)[2Nal][Aib]KN[3Pal][Sar]-NH2; linker 1-4-8 via X6) | 0.64 | 80 | 80 | 76 | 100 | 0.1 |
| CC(=O)N[C@H]1CCCCNC(=O)[C@@H]2CSSC[C@H](NC(=O)[C@H](CC(C)C)NC(=O)[C@H](Cc3c[nH]c4c(C)cccc34)NC1=O)C(=O)N[C@@H](Cc1ccc(OCCN(C)C)cc1)C(=O)N[C@@H](Cc1ccc3ccccc3c1)C(=O)N[C@@](C)(CC(C)C)C(=O)N[C@H](C(=O)N[C@@H](CC(N)=O)C(=O)N[C@@H](Cc1cccnc1)C(=O)N(C)CC(N)=O)CCCCN(C)C(=O)CCC(=O)N2 [compound 68] (Ac-K[Trp(7-Me)]LCY(Me2NCH2CH2)[2Nal][αMeL][Lys(Me)]N[3Pal][Sar]-NH2; linker 1-4-8 via X6) | 1.48 | 91 | 91 | 86 | 39 | 2.69 |
| C[C@H](NC(=O)[C@@H]1CC(=O)NCCCCCC(=O)N[C@H]2CSSC[C@H](NC(=O)[C@H](CCC(N)=O)NC(=O)[C@H](Cc3c[nH]c4ccccc34)NC(=O)CCCCNC2=O)C(=O)N[C@@H](Cc2ccc(OCCN)cc2)C(=O)N[C@@H](Cc2ccc3ccccc3c2)C(=O)NC(C)(C)C(=O)N1)C(=O)NCC(N)=O [compound 53] ([Ahx]C[Ava]WQC[AEF][2Nal][Aib]DAG-NH2; disulfide 2-6; lactam N-10) | 0.7 | 95 | 89 | 75 | 0 | 60.8 |

Further compounds by falling IC50 [1], results first:

| IC50 [1] [nM] | remaining at 1 h, 1 µM (Pancreatin) [%] | remaining at 2 h, 1 µM (Pancreatin) [%] | remaining at 4 h, 1 µM (Pancreatin) [%] | remaining at 1 h, 1 µM (Pepsin) [%] | Compound | IC50 [2] [nM] |
| --- | --- | --- | --- | --- | --- | --- |
| 0.61 | 99 | 99 | 97 | 100 | CC(=O)NCCCC[C@@H]1NC(=O)[C@H](Cc2c[nH]c3c(C)cccc23)NC(=O)[C@H]([C@@H](C)O)NC(=O)[C@H](CC(N)=O)NC(=O)[C@@H]2CSSC[C@H](NC1=O)C(=O)N[C@@H](Cc1ccc(OCCN(C)C)cc1)C(=O)N[C@@H](Cc1ccc3ccccc3c1)C(=O)N[C@@](C)(CCCCN(C)C)C(=O)N[C@H](C(=O)N[C@@H](CC(N)=O)C(=O)N[C@@H](Cc1cccnc1)C(=O)N(C)CC(N)=O)CCCCN(C)C(=O)CCC(=O)N2 [compound 156] (CNT[Trp(7-Me)]K(Ac)CY(Me2NCH2CH2)[2Nal][αMeLys(Me2)][Lys(Me)]N[3Pal][Sar]-NH2; disulfide 1-6; linker N-10 via Suc) | 0.08 |
| 0.52 | 99 | 97 | 96 | 96 | Cc1cccc2c(C[C@@H]3NC(=O)[C@H]([C@@H](C)O)NC(=O)[C@H](CC(N)=O)NC(=O)[C@@H]4CSSC[C@H](NC(=O)[C@H](CC(C)C)NC3=O)C(=O)N[C@@H](Cc3ccc(OCCN(C)C)cc3)C(=O)N[C@@H](Cc3ccc5ccccc5c3)C(=O)N[C@@](C)(CCCCN(C)C)C(=O)N[C@H](C(=O)N[C@@H](CC(N)=O)C(=O)N[C@@H](Cc3cccnc3)C(=O)N(C)CC(N)=O)CCCCNC(=O)CCC(=O)N4)c[nH]c12 [compound 154] (CNT[Trp(7-Me)]LCY(Me2NCH2CH2)[2Nal][αMeLys(Me2)]KN[3Pal][Sar]-NH2; disulfide 1-6; linker N-10 via Suc) | 0.08 |
| 0.45 | 73 | 58 | 47 | 70 | CC(=O)N[C@H]1CCCCNC(=O)[C@@H]2CSSC[C@H](NC(=O)[C@H](CCC(N)=O)NC(=O)[C@H](Cc3c[nH]c4ccccc34)NC1=O)C(=O)N[C@@H](Cc1ccc(OCCN(C)C)cc1)C(=O)N[C@@H](Cc1ccc3ccccc3c1)C(=O)NC(C)(C)C(=O)N[C@H](C(=O)N[C@@H](CC(N)=O)C(=O)NCC(N)=O)CCC(=O)NCCCCC(=O)N2 [compound 29] (Ac-KWQCY(Me2NCH2CH2)[2Nal][Aib]ENG-NH2; linker 1-4-8 via X1) | 8.16 |
| 0.36 | 100 | 96 | 84 | 86 | CC[C@H](C)[C@H](NC(=O)[C@H](CC(N)=O)NC(=O)[C@H](CC(N)=O)NC(=O)[C@@H]1CCC(=O)NCCCCC(=O)N[C@H]2CSSC[C@H](NC(=O)[C@H](CCCCNC(C)=O)NC(=O)[C@H](Cc3c[nH]c4ccccc34)NC(=O)[C@H]([C@@H](C)O)NC(=O)[C@H](CC(N)=O)NC2=O)C(=O)N[C@@H](Cc2ccc(OCCN(C)C)cc2)C(=O)N[C@@H](Cc2ccc3ccccc3c2)C(=O)NC(C)(C)C(=O)N1)C(N)=O [compound 38] ([Ava]CNTWK(Ac)CY(Me2NCH2CH2)[2Nal][Aib]ENNI-NH2; disulfide 2-7; lactam N-11) | 11.9 |
| 0.35 | 95 | 87 | 84 | 100 | Cc1cccc2c(C[C@@H]3NC(=O)[C@H]([C@@H](C)O)NC(=O)[C@H](CC(N)=O)NC(=O)[C@@H]4CSSC[C@H](NC(=O)[C@H](CCC(N)=O)NC3=O)C(=O)N[C@@H](Cc3ccc(OCCN(C)C)cc3)C(=O)N[C@@H](Cc3ccc5ccccc5c3)C(=O)NC(C)(C)C(=O)N[C@H](C(=O)N[C@@H](CC(N)=O)C(=O)N[C@@H](Cc3cccnc3)C(=O)N(C)CC(N)=O)CCC(=O)NCCCCC(=O)N4)c[nH]c12 [compound 62] ([Ava]CNT[Trp(7-Me)]QCY(Me2NCH2CH2)[2Nal][Aib]EN[3Pal][Sar]-NH2; disulfide 2-7; lactam N-11) | 0.2 |
